Test results as given in the supplement of paper PMC9663587.

Tests used:
BSJ-03-123 = compound: CC(=O)c1c(C)c2cnc(Nc3ccc(N4CCN(CCOCCOCCOCCNC(=O)COc5cccc6c5C(=O)N(C5CCC(=O)NC5=O)C6=O)CC4)cn3)nc2n(C2CCCC2)c1=O [BSJ-03-123]; test: increase in dead-cell fraction, 72 h; higher = more death;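 note: breast cancer cell lines in 384-well plates, stained with Hoechst plus LIVE/DEAD far red dye and imaged, cells above an LDR intensity threshold counted dead, Hoechst-negative corpses included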
[1] = compound: CC(=O)c1c(C)c2cnc(Nc3ccc(N4CCNCC4)cn3)nc2n(C2CCCC2)c1=O; test: as above
[2] = compound: CCN1CCN(Cc2ccc(Nc3ncc(F)c(-c4cc(F)c5nc(C)n(C(C)C)c5c4)n3)nc2)CC1; test: as above
Neratinib/HKI272 = compound: CCOc1cc2ncc(C#N)c(Nc3ccc(OCc4ccccn4)c(Cl)c3)c2cc1NC(=O)/C=C/CN(C)C [Neratinib/HKI272]; test: as above
[3] = compound: CCc1cnn2c(NCc3ccc[n+]([O-])c3)cc(N3CCCC[C@H]3CCO)nc12; test: as above
LEE011/Ribociclib = compound: CN(C)C(=O)c1cc2cnc(Nc3ccc(N4CCNCC4)cn3)nc2n1C1CCCC1 [LEE011/Ribociclib]; test: as above
THZ1 [4] = compound: T1, CN(C)C/C=C/C(=O)Nc1ccc(C(=O)Nc2cccc(Nc3ncc(Cl)c(-c4c[nH]c5ccccc45)n3)c2)cc1 [THZ1]; test: as above
Flavopiridol [5] = compound: T2, CN1CC[C@H](c2c(O)cc(O)c3c(=O)cc(-c4ccccc4Cl)oc23)[C@H](O)C1 [Flavopiridol]; test: as above
[6] = compound: CC(=O)c1c(C)c2cnc(Nc3ccc(N4CCNCC4)cn3)nc2n(C2CCCC2)c1=O; test: GR value, 72 h; higher = faster growth (1 = untreated, <0 = killing);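 note: breast cancer and non-malignant breast epithelial lines, nine half-log doses, viable cells counted by Hoechst and LIVE/DEAD dye imaging versus time-zero plates and DMSO controls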
THZ531 = compound: CN(C)C/C=C/C(=O)Nc1ccc(C(=O)N2CCC[C@@H](Nc3ncc(Cl)c(-c4c[nH]c5ccccc45)n3)C2)cc1 [THZ531]; test: as above
THZ1 [7] = compound: T1, THZ1; test: as above
Flavopiridol [8] = compound: T2, Flavopiridol; test: as above

184A1
increase in dead-cell fraction (BSJ-03-123; 0.001 µM): 0.0061
increase in dead-cell fraction (BSJ-03-123; 0.003162 µM): 0.0101
increase in dead-cell fraction (BSJ-03-123; 0.01 µM): 0.0181
increase in dead-cell fraction (BSJ-03-123; 0.03162 µM): 0.0097
increase in dead-cell fraction (BSJ-03-123; 0.1 µM): 0.0423
increase in dead-cell fraction (BSJ-03-123; 0.3162 µM): 0.0318
increase in dead-cell fraction (BSJ-03-123; 1 µM): 0.0505
increase in dead-cell fraction (BSJ-03-123; 3.162 µM): 0.0581
increase in dead-cell fraction (BSJ-03-123; 10 µM): 0.179
increase in dead-cell fraction ([1]; 0.0003162 µM): -0.0004
increase in dead-cell fraction ([1]; 0.001 µM): 0.0016
increase in dead-cell fraction ([1]; 0.003162 µM): -0.0008
increase in dead-cell fraction ([1]; 0.01 µM): 0.0001
increase in dead-cell fraction ([1]; 0.03162 µM): 0.0086
increase in dead-cell fraction ([1]; 0.1 µM): 0.0183
increase in dead-cell fraction ([1]; 0.3162 µM): 0.0224
increase in dead-cell fraction ([1]; 1 µM): 0.0414
increase in dead-cell fraction ([1]; 3.162 µM): 0.0383
increase in dead-cell fraction ([2]; 0.001 µM): 0.0016
increase in dead-cell fraction ([2]; 0.003162 µM): 0.0047
increase in dead-cell fraction ([2]; 0.01 µM): 0.0067
increase in dead-cell fraction ([2]; 0.03162 µM): 0.0185
increase in dead-cell fraction ([2]; 0.1 µM): 0.0336
increase in dead-cell fraction ([2]; 0.3162 µM): 0.0578
increase in dead-cell fraction ([2]; 1 µM): 0.056
increase in dead-cell fraction ([2]; 3.162 µM): 0.0434
increase in dead-cell fraction ([2]; 10 µM): 0.229
increase in dead-cell fraction (Neratinib/HKI272; 0.0003162 µM): -0.004
increase in dead-cell fraction (Neratinib/HKI272; 0.001 µM): -0.0007
increase in dead-cell fraction (Neratinib/HKI272; 0.003162 µM): -0.0029
increase in dead-cell fraction (Neratinib/HKI272; 0.01 µM): 0.001
increase in dead-cell fraction (Neratinib/HKI272; 0.03162 µM): 0.0214
increase in dead-cell fraction (Neratinib/HKI272; 0.1 µM): 0.0256
increase in dead-cell fraction (Neratinib/HKI272; 0.3162 µM): 0.0311
increase in dead-cell fraction (Neratinib/HKI272; 1 µM): 0.028
increase in dead-cell fraction (Neratinib/HKI272; 3.162 µM): 0.0419
increase in dead-cell fraction ([3]; 0.0001 µM): -0.0039
increase in dead-cell fraction ([3]; 0.0003162 µM): -0.0006
increase in dead-cell fraction ([3]; 0.001 µM): -0.0027
increase in dead-cell fraction ([3]; 0.003162 µM): -0.0019
increase in dead-cell fraction ([3]; 0.01 µM): 0.0164
increase in dead-cell fraction ([3]; 0.03162 µM): 0.277
increase in dead-cell fraction ([3]; 0.1 µM): 0.127
increase in dead-cell fraction ([3]; 0.3162 µM): 0.363
increase in dead-cell fraction ([3]; 1 µM): 0.368
increase in dead-cell fraction (LEE011/Ribociclib; 0.001 µM): 0.0076
increase in dead-cell fraction (LEE011/Ribociclib; 0.003162 µM): 0.0015
increase in dead-cell fraction (LEE011/Ribociclib; 0.01 µM): 0.0139
increase in dead-cell fraction (LEE011/Ribociclib; 0.03162 µM): 0.0172
increase in dead-cell fraction (LEE011/Ribociclib; 0.1 µM): 0.0129
increase in dead-cell fraction (LEE011/Ribociclib; 0.3162 µM): 0.0139
increase in dead-cell fraction (LEE011/Ribociclib; 1 µM): 0.0153
increase in dead-cell fraction (LEE011/Ribociclib; 3.162 µM): 0.015
increase in dead-cell fraction (LEE011/Ribociclib; 10 µM): 0.041
increase in dead-cell fraction (THZ1 [4]; 0.0001 µM): -0.0006
increase in dead-cell fraction (THZ1 [4]; 0.0003162 µM): 0.0038
increase in dead-cell fraction (THZ1 [4]; 0.001 µM): 0.0021
increase in dead-cell fraction (THZ1 [4]; 0.003162 µM): 0.0076
increase in dead-cell fraction (THZ1 [4]; 0.01 µM): 0.0448
increase in dead-cell fraction (THZ1 [4]; 0.03162 µM): 0.169
increase in dead-cell fraction (THZ1 [4]; 0.1 µM): 0.175
increase in dead-cell fraction (THZ1 [4]; 0.3162 µM): 0.152
increase in dead-cell fraction (Flavopiridol [5]; 0.0001 µM): -0.0061
increase in dead-cell fraction (Flavopiridol [5]; 0.0003162 µM): 0.0046
increase in dead-cell fraction (Flavopiridol [5]; 0.001 µM): -0.0038
increase in dead-cell fraction (Flavopiridol [5]; 0.003162 µM): -0.0001
increase in dead-cell fraction (Flavopiridol [5]; 0.01 µM): 0.0054
increase in dead-cell fraction (Flavopiridol [5]; 0.03162 µM): 0.0223
increase in dead-cell fraction (Flavopiridol [5]; 0.1 µM): 0.0902
increase in dead-cell fraction (Flavopiridol [5]; 0.3162 µM): 0.231
increase in dead-cell fraction (Flavopiridol [5]; 1 µM): 0.0866
GR value ([6]; 0.0003162 µM): 1.04 GR
GR value ([6]; 0.001 µM): 0.968 GR
GR value ([6]; 0.003162 µM): 0.963 GR
GR value ([6]; 0.01 µM): 0.848 GR
GR value ([6]; 0.03162 µM): 0.664 GR
GR value ([6]; 0.1 µM): 0.465 GR
GR value ([6]; 0.3162 µM): 0.324 GR
GR value ([6]; 1 µM): 0.191 GR
GR value ([6]; 3.162 µM): 0.128 GR
GR value (THZ531; 0.0001 µM): 1.01 GR
GR value (THZ531; 0.0003162 µM): 0.964 GR
GR value (THZ531; 0.001 µM): 0.898 GR
GR value (THZ531; 0.003162 µM): 0.954 GR
GR value (THZ531; 0.01 µM): 0.931 GR
GR value (THZ531; 0.03162 µM): 0.968 GR
GR value (THZ531; 0.1 µM): 0.814 GR
GR value (THZ531; 0.3162 µM): 0.438 GR
GR value (THZ531; 1 µM): -0.377 GR
GR value (THZ1 [7]; 0.0001 µM): 1.02 GR
GR value (THZ1 [7]; 0.0003162 µM): 1 GR
GR value (THZ1 [7]; 0.001 µM): 1.01 GR
GR value (THZ1 [7]; 0.003162 µM): 0.822 GR
GR value (THZ1 [7]; 0.01 µM): 0.39 GR
GR value (THZ1 [7]; 0.03162 µM): -0.094 GR
GR value (THZ1 [7]; 0.1 µM): -0.2 GR
GR value (THZ1 [7]; 0.3162 µM): -0.209 GR
GR value (Flavopiridol [8]; 0.0001 µM): 1.04 GR
GR value (Flavopiridol [8]; 0.0003162 µM): 1 GR
GR value (Flavopiridol [8]; 0.001 µM): 1.01 GR
GR value (Flavopiridol [8]; 0.003162 µM): 0.931 GR
GR value (Flavopiridol [8]; 0.01 µM): 0.838 GR
GR value (Flavopiridol [8]; 0.03162 µM): 0.614 GR
GR value (Flavopiridol [8]; 0.1 µM): 0.0558 GR
GR value (Flavopiridol [8]; 0.3162 µM): -0.172 GR
GR value (Flavopiridol [8]; 1 µM): -0.307 GR
